Measured values from patent US10577610B2, “EpCAM aptamers and conjugates thereof” (Deakin University, priority 2015, dated 2020).
Where “and” joins values, the source holds several entries; their conditions need not be identical. Equal values may be shown once. [invdT] = inverted (3'-3') thymidine; {TYE665} = TYE665 fluorescent dye

Legend:
mouse TfR = target: T1, mouse TfR (Mus musculus, UniProt Q62351); experiment: Flow cytometry binding assay on bEnd.3 cells (TfR-positive); settings: bEnd.3 (TfR-positive) cells, n=3
T1 construct: bEnd.3 cells, mouse cells positive for TfR; host or cells: bEnd.3 mouse cerebral endothelial cells
Method: In order to determine the binding affinity (equilibrium dissociation constant KD) of the aptamers. Binding assays were conducted to measure the binding to native EpCAM protein expressed on the cell surface. The aptamers were incubated with the cells at concentrations ranging from 0 nM to 400 nM. These were subsequently analysed by flow cytometry. Aptamers were thawed from storage (-20° C.) prior to use. These were then diluted via serial dilutions with phosphate buffered saline (PBS) in order to achieve the desired concentrations. PBS was supplemented with a MgCl2 concentration appropriate for the aptamer (1 mM for anti-TfR aptamers; 5 mM for conjugate aptamers). […] Concurrently, subcultured cells were incubated in blocking buffer (PBS with 10% FCS, 1 mg/mL BSA, 0.1 mg/mL tRNA) for 30 minutes. Following centrifugation, blocking buffer was removed and cells were resuspended in binding buffer (PBS with 10% FCS, 1 mg/mL BSA, 0.1 mg/mL tRNA). Cells (50 μL) were then incubated with the aptamers (50 μL) for 30 minutes at 37° C. at a range of concentrations (0 nM, 20 nM, 40 nM, 60 nM, 80 nM, 100 nM, 200 nM, 400 nM). Following this, cells were washed in 100 μL PBS three times before final resuspension for flow cytometry. Aptamers were incubated with the chosen cell lines (bEnd.3 cells, mouse cells positive for TfR; HEY cells, human ovarian cancer cell line positive for EpCAM; and MOLT4 human cells negative for both TfR and EpCAM) at a range of concentrations. Aptamer-bound cells were analysed using a FACS Canto II flow cytometer (Becton Dickinson), counting 10,000 events for each sample, in order to determine the binding affinity of the aptamers. […] The value for the auto fluorescent 0 nM concentration was subtracted from the other figures to account for background fluorescence (Li N et al (2009) Journal of Proteome Research 8(5):2438-48). […] The binding affinities of aptamers TfR1, TfR2, […] determined semi-quantitatively via flow cytometry, using bEnd.3 mouse cerebral endothelial cells as a Tf R-positive cell line and MOLT4 acute lymphoblastic leukaemia cells-which express the human TfR, but not the mouse TfR (Sutherland R et al (1981) PNAS 78(7):4515-9)-as a negative control. Three independent binding assays were performed for each aptamer against each cell line. […] Three independent binding assays were performed for these aptamer against all three cell lines (bEnd.3, HEY and MOLT4).

bEnd.3 cells = experiment: Confocal microscopy internalisation into bEnd.3 cells; type: cell-based, mouse; settings: for Internalisation into TfR-expressing bEnd.3 cells: conjugate aptamers, 400 nM, two hour, confocal microscopy
Method: Confocal microscopy was used as a means of visualising aptamer internalisation into the cells. Both aptamers and cells were prepared in the same manner as described above before they were mixed and allowed to incubate at 37° C. The aptamers were used at a concentration of 200 nM and were allowed to incubate for 60 minutes. The concentration for the conjugate (bifunctional) aptamers was 400 nM and these were incubated with the cells for 120 minutes. Ten minutes prior to end of incubation, 2 μL of Hoechst nuclear stain (10 mg/mL) was added to cells. Cells were then washed three times with 100 μL of PBS as described above and resuspended in 20 μL (8×10^5 cells/well) in an 8-chambered slide (Lab-Tek II, Nunc) for visualisation. Cells were incubated in blocking buffer for 60 mins followed by resuspension in binding buffer containing the aptamer and incubated for 60 mins at 37° C. […] The aptamer solution was removed and the cells were washed three times for 5 min each in PBS prior to visualisation using a FluoView FV10i laser scanning confocal microscope (Olympus). In order to assess the mechanism of cellular uptake, the internalisation of a phycoethyrin-labelled rat anti-mouse TfR monoclonal antibody (R17217; Abcam) was also visualised by confocal microscopy by co-incubating it with the aptamer at 1 μg/mL for 30 minutes. The uptake of these aptamers into cells is an important factor in determining the potential for use as therapeutics. The anti-transferrin receptor aptamers generated herein are designed to pass through the BBB via the active transcytosis pathway. […] This was done by visualising the internalisation of aptamers at a concentration of 200 nM into bEnd.3 and MOLT4 cells over the course of a one hour incubation with confocal microscopy. Aptamers are relatively new molecular tools in the field of diagnostics and therapeutics. […] The performance of the aptamer with a corresponding antibody was compared by examining uptake in bEnd.3 cells. This was done by incubating the highest affinity aptamer, TfR3, and the anti-TfR antibody with the bEnd.3 cells and observing them via confocal microscopy. The anti-TfR aptamers generated herein are intended to be used as drug delivery agents capable of crossing the blood-brain barrier (BBB). In an in vivo or clinical setting, these would need to pass from the bloodstream and into the BBB endothelial monolayer before exiting on the other side into the brain parenchyma. Given this, it is vital that these are not only capable of entered cells via active transport processes, but can also exocytose out again. Therefore, a time course internalisation experiment was conducted in order to establish whether or not the aptamers are being retained in the cells or are returning to the extracellular fluid. […]

T1 sequence (Q62351 whole entry): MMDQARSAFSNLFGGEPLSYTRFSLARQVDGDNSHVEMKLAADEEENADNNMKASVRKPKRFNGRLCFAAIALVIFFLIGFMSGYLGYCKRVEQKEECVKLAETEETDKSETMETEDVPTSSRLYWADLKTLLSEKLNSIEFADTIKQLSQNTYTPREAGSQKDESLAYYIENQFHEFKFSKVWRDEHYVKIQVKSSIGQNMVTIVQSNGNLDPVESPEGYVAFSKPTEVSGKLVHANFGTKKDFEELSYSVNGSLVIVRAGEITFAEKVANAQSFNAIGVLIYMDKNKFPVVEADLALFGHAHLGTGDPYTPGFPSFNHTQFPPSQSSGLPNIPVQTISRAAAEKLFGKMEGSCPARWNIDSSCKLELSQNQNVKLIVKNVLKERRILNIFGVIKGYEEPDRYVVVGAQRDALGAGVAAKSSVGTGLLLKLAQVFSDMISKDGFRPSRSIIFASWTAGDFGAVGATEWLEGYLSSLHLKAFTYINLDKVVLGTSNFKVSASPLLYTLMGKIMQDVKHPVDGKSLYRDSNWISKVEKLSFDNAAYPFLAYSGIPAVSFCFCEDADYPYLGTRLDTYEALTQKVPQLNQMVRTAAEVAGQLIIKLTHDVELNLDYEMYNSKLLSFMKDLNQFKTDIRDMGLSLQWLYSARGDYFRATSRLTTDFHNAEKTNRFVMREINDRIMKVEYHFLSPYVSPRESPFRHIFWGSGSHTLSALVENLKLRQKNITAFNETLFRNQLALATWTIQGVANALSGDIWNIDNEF

| Substance | Kd (mouse TfR) | Internalisation into TfR-expressing bEnd.3 cells (bEnd.3 cells) | Co-localisation with the anti-TfR antibody (bEnd.3 cells; bEnd.3 cells, co-incubation with antibody R17217) |
| --- | --- | --- | --- |
| 5′-GCGCGGGCCCGCGCTAACGGAGGTTGCGTCCGT-3′ (GCGCGGGCCCGCGCTAACGGAGGTTGCGTCCGN; DNA sequence of aptamer conjugate Bi2; (33)..(33) n is t or 3′ inverted deoxythymidine (dT)) | 306 nM and 305 nM | internalised | – |
| 5′-GCGCGGTACCGCGCTAACGGAGGTTGCGTCCGT-3′ (GCGCGGTACCGCGCTAACGGAGGTTGCGTCCGN; listed as DNA, chemistry not given here) [Bi3] | 342 ± 78.3 nM | internalised | – |
| Bi1: aptamer conjugate based on TfR1 and scrambled EpCAM binding loop, negative control, SEQ ID NO:8 (GCGCGTGCACGCGCTAACGGATTCCTTTTCCGN; listed as DNA, further chemistry not given here) | 1690 ± 1840 nM | not | – |
| TfR3: version of TfR1 with scrambled binding loop sequence, SEQ ID NO:6 (DNA GCGTGGTACCACGC; DNA, 5' {TYE665}, 3' [invdT], backbone not given here) | 366 nM | – | observed |
